{"source": "patent US9790210B2", "about": "“N-(monocyclic aryl),N'-pyrazolyl-urea, thiourea, guanidine and cyanoguanidine compounds as TrkA kinase inhibitors” (Array BioPharma Inc., priority 2012, dated 2017)", "experiment_in_all_cases": "KinaseProfiler", "format_in_all_cases": "biochemical", "details_in_all_cases": "10 μM, ATP near Km", "key": {"AMPK(A1/B1/G1)": {"biological_target": "T1, AMPK(A1/B1/G1) (Homo sapiens, UniProt Q13131)", "T1 construct": "purchased Millipore (KinaseProfiler service)", "method": "(§1) A representative compound (Example 15) of the invention was tested for off-target kinase activity at a concentration of 10 μM by Millipore, Inc. in their KinaseProfiler™ service against all the kinases available in their full kinase panel. The compound was run in duplicate at a concentration of ATP near the Km for each individual kinase according to Millipore's specifications. The results are shown in Table B. Data are reported as percent of control (POC) and are the average of the two replicates."}, "Ab12": {"biological_target": "T2, Ab12 (Homo sapiens, UniProt P42684)", "T2 construct": "purchased Millipore (KinaseProfiler service)", "method": "as §1"}, "Axl": {"biological_target": "T3, Axl (Homo sapiens, UniProt P30530)", "T3 construct": "purchased Millipore (KinaseProfiler service)", "method": "as §1"}, "Bmx": {"biological_target": "T4, Bmx (Homo sapiens, UniProt P51813)", "T4 construct": "purchased Millipore (KinaseProfiler service)", "T4 sequence (P51813 whole entry)": "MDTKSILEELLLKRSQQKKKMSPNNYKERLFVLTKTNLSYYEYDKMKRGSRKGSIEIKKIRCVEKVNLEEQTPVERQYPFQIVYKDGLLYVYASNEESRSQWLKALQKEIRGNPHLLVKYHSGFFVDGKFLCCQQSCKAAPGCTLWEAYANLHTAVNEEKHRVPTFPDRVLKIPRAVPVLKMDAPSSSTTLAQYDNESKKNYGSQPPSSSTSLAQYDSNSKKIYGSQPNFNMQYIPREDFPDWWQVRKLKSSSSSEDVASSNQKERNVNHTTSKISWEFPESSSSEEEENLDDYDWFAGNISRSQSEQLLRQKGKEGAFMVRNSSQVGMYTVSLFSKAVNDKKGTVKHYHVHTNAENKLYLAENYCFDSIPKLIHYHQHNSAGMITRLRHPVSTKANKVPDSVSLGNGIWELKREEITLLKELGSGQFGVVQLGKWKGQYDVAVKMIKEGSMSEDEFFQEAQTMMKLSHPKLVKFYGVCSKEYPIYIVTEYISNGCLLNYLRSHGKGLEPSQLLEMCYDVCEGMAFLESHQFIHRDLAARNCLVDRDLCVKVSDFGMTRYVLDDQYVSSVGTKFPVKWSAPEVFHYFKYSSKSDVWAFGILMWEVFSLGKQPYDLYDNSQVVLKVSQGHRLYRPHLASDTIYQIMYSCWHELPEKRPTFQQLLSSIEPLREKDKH", "method": "as §1"}, "BrSK1": {"biological_target": "T5, BrSK1 (Homo sapiens, UniProt Q8TDC3)", "T5 construct": "purchased Millipore (KinaseProfiler service)", "T5 sequence (Q8TDC3 whole entry)": "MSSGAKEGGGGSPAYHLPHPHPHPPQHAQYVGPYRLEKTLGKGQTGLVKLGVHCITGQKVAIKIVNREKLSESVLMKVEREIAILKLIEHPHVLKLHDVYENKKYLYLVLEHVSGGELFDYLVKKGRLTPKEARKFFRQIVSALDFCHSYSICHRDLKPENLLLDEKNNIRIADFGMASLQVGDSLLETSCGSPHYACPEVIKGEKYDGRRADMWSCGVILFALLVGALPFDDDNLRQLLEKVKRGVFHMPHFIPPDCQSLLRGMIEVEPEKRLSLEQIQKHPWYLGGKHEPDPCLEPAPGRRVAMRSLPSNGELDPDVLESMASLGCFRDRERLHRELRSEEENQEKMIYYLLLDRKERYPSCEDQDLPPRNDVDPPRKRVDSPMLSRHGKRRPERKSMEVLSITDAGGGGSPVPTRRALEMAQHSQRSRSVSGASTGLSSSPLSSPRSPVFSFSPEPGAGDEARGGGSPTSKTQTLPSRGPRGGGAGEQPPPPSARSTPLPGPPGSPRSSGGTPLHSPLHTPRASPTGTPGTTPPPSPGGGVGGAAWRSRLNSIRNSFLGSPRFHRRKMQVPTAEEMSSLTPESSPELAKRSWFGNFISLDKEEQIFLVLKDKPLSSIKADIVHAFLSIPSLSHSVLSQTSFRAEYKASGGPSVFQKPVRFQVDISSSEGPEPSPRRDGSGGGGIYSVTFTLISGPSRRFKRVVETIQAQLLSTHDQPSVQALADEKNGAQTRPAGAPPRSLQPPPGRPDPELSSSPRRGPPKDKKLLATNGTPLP", "method": "as §1"}, "BrSK2": {"biological_target": "T6, BrSK2 (Homo sapiens, UniProt Q8IWQ3)", "T6 construct": "purchased Millipore (KinaseProfiler service)", "method": "as §1"}, "CAMK1": {"biological_target": "T7, CAMK1 (Homo sapiens, UniProt Q14012)", "T7 construct": "purchased Millipore (KinaseProfiler service)", "method": "as §1"}, "CDK2/cyclinA": {"biological_target": "T8, CDK2/cyclinA (Homo sapiens, UniProt P24941)", "T8 construct": "purchased Millipore, Inc. (KinaseProfiler service)", "method": "as §1"}, "CDK7/cyclinH/MAT1": {"biological_target": "T9, CDK7/cyclinH/MAT1 (Homo sapiens, UniProt P50613)", "T9 construct": "purchased Millipore, Inc. (KinaseProfiler service)", "method": "as §1"}, "CK1_y": {"test_system": "CK1_y", "method": "as §1"}, "CLK3": {"biological_target": "T10, CLK3 (Homo sapiens, UniProt P49761)", "T10 construct": "purchased Millipore, Inc. (KinaseProfiler service)", "method": "as §1"}, "ERK1": {"biological_target": "T11, ERK1 (Homo sapiens, UniProt P27361)", "T11 construct": "purchased Millipore, Inc. (KinaseProfiler service)", "method": "as §1"}, "ERK2": {"biological_target": "T12, ERK2 (Homo sapiens, UniProt P28482)", "T12 construct": "purchased Millipore, Inc. (KinaseProfiler service)", "T12 sequence (P28482 whole entry)": "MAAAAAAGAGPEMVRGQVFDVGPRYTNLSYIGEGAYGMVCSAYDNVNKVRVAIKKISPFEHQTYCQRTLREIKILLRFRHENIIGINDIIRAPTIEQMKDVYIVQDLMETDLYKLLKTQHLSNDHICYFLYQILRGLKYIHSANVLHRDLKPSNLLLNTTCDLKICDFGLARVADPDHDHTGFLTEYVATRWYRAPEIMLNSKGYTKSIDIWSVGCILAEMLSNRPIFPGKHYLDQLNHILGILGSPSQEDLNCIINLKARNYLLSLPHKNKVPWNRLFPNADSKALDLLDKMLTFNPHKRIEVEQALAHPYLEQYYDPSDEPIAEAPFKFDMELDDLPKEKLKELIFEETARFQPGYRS", "method": "as §1"}, "EphA2": {"biological_target": "T13, EphA2 (Homo sapiens, UniProt P29317)", "T13 construct": "purchased Millipore, Inc. (KinaseProfiler service)", "T13 sequence (P29317 24-976)": "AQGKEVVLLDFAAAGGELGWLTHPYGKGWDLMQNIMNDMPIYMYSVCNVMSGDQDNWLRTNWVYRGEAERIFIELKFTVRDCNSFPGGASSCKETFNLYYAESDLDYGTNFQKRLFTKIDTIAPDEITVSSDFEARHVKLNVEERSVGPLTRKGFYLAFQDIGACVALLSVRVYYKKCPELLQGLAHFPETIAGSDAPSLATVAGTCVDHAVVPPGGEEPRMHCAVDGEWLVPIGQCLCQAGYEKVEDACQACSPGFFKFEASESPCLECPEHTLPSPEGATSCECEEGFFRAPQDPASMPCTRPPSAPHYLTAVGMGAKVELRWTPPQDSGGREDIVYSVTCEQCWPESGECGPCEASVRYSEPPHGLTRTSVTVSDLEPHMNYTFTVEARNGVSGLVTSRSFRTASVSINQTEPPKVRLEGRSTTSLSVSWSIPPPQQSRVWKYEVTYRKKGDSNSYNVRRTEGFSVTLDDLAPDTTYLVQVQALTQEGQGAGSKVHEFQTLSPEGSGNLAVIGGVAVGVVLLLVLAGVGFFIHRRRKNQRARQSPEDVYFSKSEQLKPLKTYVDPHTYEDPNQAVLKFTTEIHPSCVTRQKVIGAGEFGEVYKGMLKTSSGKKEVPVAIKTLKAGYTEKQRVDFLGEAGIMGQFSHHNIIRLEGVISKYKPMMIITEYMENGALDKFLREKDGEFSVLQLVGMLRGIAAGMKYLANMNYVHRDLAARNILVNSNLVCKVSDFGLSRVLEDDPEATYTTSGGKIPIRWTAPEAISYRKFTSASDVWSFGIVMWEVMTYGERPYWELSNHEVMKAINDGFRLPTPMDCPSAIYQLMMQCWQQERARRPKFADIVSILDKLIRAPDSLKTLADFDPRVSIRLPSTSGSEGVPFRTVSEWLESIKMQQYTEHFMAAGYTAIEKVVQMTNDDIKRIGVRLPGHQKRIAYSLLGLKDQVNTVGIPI", "method": "as §1"}, "EphA3": {"biological_target": "T14, EphA3 (Homo sapiens, UniProt P29320)", "T14 construct": "purchased Millipore, Inc. (KinaseProfiler service)", "method": "as §1"}, "EphA8": {"biological_target": "T15, EphA8 (Homo sapiens, UniProt P29322)", "T15 construct": "purchased Millipore, Inc. (KinaseProfiler service)", "T15 sequence (P29322 28-1005)": "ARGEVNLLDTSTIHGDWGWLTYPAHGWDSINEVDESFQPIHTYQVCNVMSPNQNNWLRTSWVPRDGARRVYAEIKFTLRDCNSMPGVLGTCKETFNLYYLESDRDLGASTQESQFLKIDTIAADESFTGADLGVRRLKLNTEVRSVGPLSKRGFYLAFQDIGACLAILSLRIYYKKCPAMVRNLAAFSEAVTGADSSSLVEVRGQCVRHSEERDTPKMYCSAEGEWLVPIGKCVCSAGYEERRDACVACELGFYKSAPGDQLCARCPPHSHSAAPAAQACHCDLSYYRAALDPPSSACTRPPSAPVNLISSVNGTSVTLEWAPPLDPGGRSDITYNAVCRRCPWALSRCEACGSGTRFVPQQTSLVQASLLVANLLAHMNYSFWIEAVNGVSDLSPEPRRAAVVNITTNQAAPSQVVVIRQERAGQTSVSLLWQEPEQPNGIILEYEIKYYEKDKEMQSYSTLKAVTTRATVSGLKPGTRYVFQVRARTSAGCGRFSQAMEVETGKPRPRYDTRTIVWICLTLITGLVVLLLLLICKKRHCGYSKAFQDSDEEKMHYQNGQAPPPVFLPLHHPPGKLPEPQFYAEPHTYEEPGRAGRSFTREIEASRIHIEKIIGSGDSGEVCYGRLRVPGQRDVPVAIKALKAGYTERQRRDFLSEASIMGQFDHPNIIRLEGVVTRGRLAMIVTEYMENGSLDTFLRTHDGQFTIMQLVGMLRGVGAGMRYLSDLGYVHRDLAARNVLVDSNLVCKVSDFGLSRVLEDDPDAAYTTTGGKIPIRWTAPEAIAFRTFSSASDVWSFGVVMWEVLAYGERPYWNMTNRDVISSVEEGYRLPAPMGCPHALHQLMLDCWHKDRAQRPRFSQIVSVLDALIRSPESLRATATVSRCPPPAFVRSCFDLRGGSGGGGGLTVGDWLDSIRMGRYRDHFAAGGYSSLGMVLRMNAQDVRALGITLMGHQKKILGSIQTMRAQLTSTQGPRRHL", "method": "as §1"}, "Fgr": {"biological_target": "T16, Fgr (Homo sapiens, UniProt P09769)", "T16 construct": "purchased Millipore, Inc. (KinaseProfiler service)", "method": "as §1"}, "Flt3": {"biological_target": "T17, Flt3 (Homo sapiens, UniProt P36888)", "T17 construct": "purchased Millipore, Inc. (KinaseProfiler service)", "method": "as §1"}, "GRK7": {"biological_target": "T18, GRK7 (Homo sapiens, UniProt Q8WTQ7)", "T18 construct": "purchased Millipore, Inc. (KinaseProfiler service)", "method": "as §1"}, "HIPK1": {"biological_target": "T19, HIPK1 (Homo sapiens, UniProt Q86Z02)", "T19 construct": "purchased Millipore, Inc. (KinaseProfiler service)", "method": "as §1"}, "HIPK2": {"biological_target": "T20, HIPK2 (Homo sapiens, UniProt Q9H2X6)", "T20 construct": "purchased Millipore, Inc. (KinaseProfiler service)", "method": "as §1"}, "IRR": {"biological_target": "T21, IRR (Homo sapiens, UniProt P14616)", "T21 construct": "purchased Millipore, Inc. (KinaseProfiler service)", "method": "as §1"}, "JAK2": {"biological_target": "T22, JAK2 (Homo sapiens, UniProt O60674)", "T22 construct": "purchased Millipore, Inc. (KinaseProfiler service)", "method": "as §1"}, "LIMK1": {"biological_target": "T23, LIMK1 (Homo sapiens, UniProt P53667)", "T23 construct": "purchased Millipore, Inc. (KinaseProfiler service)", "method": "as §1"}, "Lyn": {"biological_target": "T24, Lyn (Homo sapiens, UniProt P07948)", "T24 construct": "purchased Millipore, Inc. (KinaseProfiler service)", "T24 sequence (P07948 whole entry)": "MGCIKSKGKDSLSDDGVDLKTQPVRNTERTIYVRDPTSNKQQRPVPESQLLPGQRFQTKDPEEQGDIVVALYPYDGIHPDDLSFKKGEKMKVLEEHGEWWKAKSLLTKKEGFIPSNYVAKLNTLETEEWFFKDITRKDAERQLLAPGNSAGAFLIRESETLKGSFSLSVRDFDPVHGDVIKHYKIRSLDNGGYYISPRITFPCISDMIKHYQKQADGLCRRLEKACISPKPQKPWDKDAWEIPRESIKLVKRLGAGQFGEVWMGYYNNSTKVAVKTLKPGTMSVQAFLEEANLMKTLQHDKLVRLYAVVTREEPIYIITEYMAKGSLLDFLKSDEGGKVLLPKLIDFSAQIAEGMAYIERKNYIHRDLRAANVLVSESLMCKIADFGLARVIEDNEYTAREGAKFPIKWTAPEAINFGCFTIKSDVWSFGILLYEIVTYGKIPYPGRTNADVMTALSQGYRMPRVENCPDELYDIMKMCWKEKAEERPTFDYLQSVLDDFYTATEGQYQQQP", "method": "as §1"}, "NEK3": {"biological_target": "T25, NEK3 (Homo sapiens, UniProt P51956)", "T25 construct": "purchased Millipore, Inc. (KinaseProfiler service)", "method": "as §1"}, "PKCalpha": {"biological_target": "T26, PKCalpha (Homo sapiens, UniProt P17252)", "T26 construct": "purchased Millipore, Inc. (KinaseProfiler service)", "method": "as §1"}, "PKCeta": {"biological_target": "T27, PKCeta (Homo sapiens, UniProt P24723)", "T27 construct": "purchased Millipore, Inc. (KinaseProfiler service)", "method": "as §1"}, "PKD1": {"biological_target": "T28, PKD1 (Homo sapiens, UniProt Q15139)", "T28 construct": "purchased Millipore, Inc. (KinaseProfiler service)", "method": "as §1"}, "PTK5": {"biological_target": "T29, PTK5 (Homo sapiens, UniProt P42685)", "T29 construct": "purchased Millipore, Inc. (KinaseProfiler service)", "method": "as §1"}, "Plk2": {"biological_target": "T30, Plk2 (Homo sapiens, UniProt Q9NYY3)", "T30 construct": "purchased Millipore, Inc. (KinaseProfiler service)", "method": "as §1"}, "Ros": {"biological_target": "T31, Ros (Homo sapiens, UniProt P08922)", "T31 construct": "purchased Millipore, Inc. (KinaseProfiler service)", "method": "as §1"}, "Rse": {"biological_target": "T32, Rse (Homo sapiens, UniProt Q06418)", "T32 construct": "purchased Millipore, Inc. (KinaseProfiler service)", "method": "as §1"}, "Rsk1": {"biological_target": "T33, Rsk1 (Homo sapiens, UniProt Q15418)", "T33 construct": "purchased Millipore, Inc. (KinaseProfiler service)", "method": "as §1"}, "SRC": {"biological_target": "T34, SRC (Homo sapiens, UniProt P12931)", "T34 construct": "purchased Millipore, Inc. (KinaseProfiler service)", "T34 sequence (P12931 whole entry)": "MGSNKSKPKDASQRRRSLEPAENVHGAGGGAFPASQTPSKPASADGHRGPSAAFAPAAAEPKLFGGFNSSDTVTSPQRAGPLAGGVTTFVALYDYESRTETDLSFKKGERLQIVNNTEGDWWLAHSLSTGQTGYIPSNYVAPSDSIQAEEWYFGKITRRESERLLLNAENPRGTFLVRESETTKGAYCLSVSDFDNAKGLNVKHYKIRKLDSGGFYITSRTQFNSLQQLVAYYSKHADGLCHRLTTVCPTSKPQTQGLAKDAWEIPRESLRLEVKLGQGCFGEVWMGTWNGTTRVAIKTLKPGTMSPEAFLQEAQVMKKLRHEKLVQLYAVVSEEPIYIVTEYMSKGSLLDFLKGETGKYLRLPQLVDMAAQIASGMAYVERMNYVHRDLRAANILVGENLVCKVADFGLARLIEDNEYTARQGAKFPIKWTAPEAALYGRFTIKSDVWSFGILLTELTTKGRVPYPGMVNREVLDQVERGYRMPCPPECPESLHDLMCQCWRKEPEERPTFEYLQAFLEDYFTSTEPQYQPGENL", "method": "as §1"}, "Syk": {"biological_target": "T35, Syk (Homo sapiens, UniProt P43405)", "T35 construct": "purchased Millipore, Inc. (KinaseProfiler service)", "method": "as §1"}, "Txk": {"biological_target": "T36, Txk (Homo sapiens, UniProt P42681)", "T36 construct": "purchased Millipore, Inc. (KinaseProfiler service)", "method": "as §1"}, "VRK2": {"biological_target": "T37, VRK2 (Homo sapiens, UniProt Q86Y07)", "T37 construct": "purchased Millipore, Inc. (KinaseProfiler service)", "method": "as §1"}, "eEF-2K": {"biological_target": "T38, eEF-2K (Homo sapiens, UniProt O00418)", "T38 construct": "purchased Millipore, Inc. (KinaseProfiler service)", "method": "as §1"}, "p38beta": {"biological_target": "T39, p38beta (Homo sapiens, UniProt Q15759)", "T39 construct": "purchased Millipore, Inc. (KinaseProfiler service)", "method": "as §1"}, "p70S6K": {"biological_target": "T40, p70S6K (Homo sapiens, UniProt P23443)", "T40 construct": "purchased Millipore, Inc. (KinaseProfiler service)", "method": "as §1"}}}
{"smiles": "COCCCc1cc(Cl)c(Cl)cc1NC(=O)Nc1c(C)c(-c2cnn(C)c2)nn1-c1ccccc1", "note": "[Example 15, 1-(4,5-dichloro-2-(3-methoxypropyl)phenyl)-3-(1′,4-dimethyl-1-phenyl-1H,1′H-[3,4′-bipyrazol]-5-yl)urea]", "values": [{"measurement": "Avg POC", "setting": "AMPK(A1/B1/G1)", "value": 149, "unit": "POC"}, {"measurement": "Avg POC", "setting": "Ab12", "value": 108, "unit": "POC"}, {"measurement": "Avg POC", "setting": "Axl", "value": 107, "unit": "POC"}, {"measurement": "Avg POC", "setting": "Bmx", "value": 129.5, "unit": "POC"}, {"measurement": "Avg POC", "setting": "BrSK1", "value": 123.5, "unit": "POC"}, {"measurement": "Avg POC", "setting": "BrSK2", "value": 123, "unit": "POC"}, {"measurement": "Avg POC", "setting": "CAMK1", "value": 96, "unit": "POC"}, {"measurement": "Avg POC", "setting": "CDK2/cyclinA", "value": 112.5, "unit": "POC"}, {"measurement": "Avg POC", "setting": "CDK7/cyclinH/MAT1", "value": 106, "unit": "POC"}, {"measurement": "Avg POC", "setting": "CK1_y", "value": 96.5, "unit": "POC"}, {"measurement": "Avg POC", "setting": "CLK3", "value": 105, "unit": "POC"}, {"measurement": "Avg POC", "setting": "ERK1", "value": 103.5, "unit": "POC"}, {"measurement": "Avg POC", "setting": "ERK2", "value": 108, "unit": "POC"}, {"measurement": "Avg POC", "setting": "EphA2", "value": 104, "unit": "POC"}, {"measurement": "Avg POC", "setting": "EphA3", "value": 117, "unit": "POC"}, {"measurement": "Avg POC", "setting": "EphA8", "value": 127.5, "unit": "POC"}, {"measurement": "Avg POC", "setting": "Fgr", "value": 118, "unit": "POC"}, {"measurement": "Avg POC", "setting": "Flt3", "value": 81, "unit": "POC"}, {"measurement": "Avg POC", "setting": "GRK7", "value": 115, "unit": "POC"}, {"measurement": "Avg POC", "setting": "HIPK1", "value": 118, "unit": "POC"}, {"measurement": "Avg POC", "setting": "HIPK2", "value": 99.5, "unit": "POC"}, {"measurement": "Avg POC", "setting": "IRR", "value": 99.5, "unit": "POC"}, {"measurement": "Avg POC", "setting": "JAK2", "value": 111.5, "unit": "POC"}, {"measurement": "Avg POC", "setting": "LIMK1", "value": 93.5, "unit": "POC"}, {"measurement": "Avg POC", "setting": "Lyn", "value": 84.5, "unit": "POC"}, {"measurement": "Avg POC", "setting": "NEK3", "value": 120, "unit": "POC"}, {"measurement": "Avg POC", "setting": "PKCalpha", "value": 104, "unit": "POC"}, {"measurement": "Avg POC", "setting": "PKCeta", "value": 105.5, "unit": "POC"}, {"measurement": "Avg POC", "setting": "PKD1", "value": 113.5, "unit": "POC"}, {"measurement": "Avg POC", "setting": "PTK5", "value": 102.5, "unit": "POC"}, {"measurement": "Avg POC", "setting": "Plk2", "value": 105, "unit": "POC"}, {"measurement": "Avg POC", "setting": "Ros", "value": 105.5, "unit": "POC"}, {"measurement": "Avg POC", "setting": "Rse", "value": 109, "unit": "POC"}, {"measurement": "Avg POC", "setting": "Rsk1", "value": 118, "unit": "POC"}, {"measurement": "Avg POC", "setting": "SRC", "value": 90, "unit": "POC"}, {"measurement": "Avg POC", "setting": "Syk", "value": 100, "unit": "POC"}, {"measurement": "Avg POC", "setting": "Txk", "value": 135.5, "unit": "POC"}, {"measurement": "Avg POC", "setting": "VRK2", "value": 94, "unit": "POC"}, {"measurement": "Avg POC", "setting": "eEF-2K", "value": 181, "unit": "POC"}, {"measurement": "Avg POC", "setting": "p38beta", "value": 106.5, "unit": "POC"}, {"measurement": "Avg POC", "setting": "p70S6K", "value": 130.5, "unit": "POC"}]}
